Experimental data published in US12173039B1, “TPL2 inhibiting agents, uses thereof, and detection of TPL2” (Washington University, priority 2021, dated 2024).

What was measured:
[1] = test system: p-FAK, p-ERK, total FAK, and FoxM1; assay: Reverse-phase protein array (RPPA) on HPNE-KRAS^G12D cells overexpressing IRAK4; type: cell-based, human
Method: All lysates were prepared according to sample preparation guidelines provided by MD Anderson Cancer Center (MDACC). HPNE-KRAS^G12D were infected with retroviral particles containing AU1-tagged IRAK4 WT or vector control in presence of 8 μg mL-1 polybrene, selected with blasticidin (10 μg mL-1) and RPPA was performed. For drug treatment, IRAK4 overexpressing cells were treated with AS2444697 2 μM or vehicle (DMSO) for 24 hours. For evaluation of TPL2 WT and E188K, 293T cells were transfected in duplicates with Vector (pbabe-puro), TPL2 WT or TPL2 E188K along with equal amount of polyethylenimine. Cells were harvested 48 hrs post-transfection and lysates were prepared and sent for RPPA. For both RPPA experiments, lysates were quantified by Bradford assay (Thermo Scientific), equalized for concentration, and denatured and reduced by adding 4×SDS sample buffer (without bromophenol blue) and boiling for 5 minutes.

[2] = test system: HPNE-KRAS^G12D cells, HEKT/tH-KRAS^G12V cells, conventional PDAC lines, and PDCLs; assay: Anchorage independent soft agar growth assay, human KRAS-mutant lines; type: cell-based
Method: Cells were seeded at 5000-15000 cells in 0.3% noble agar-DMEM suspension per well, in triplicate, in 24 well plate. For drug treatment, compound was added to cell suspension at 1× concentration. Seeded cells were fed with fresh 0.6% agar-DMEM mix once every 7-12 days. […] After 3-6 weeks, colonies were counted under microscope and imaged. Colony count was normalized to control and graphed in GraphPad Prism v7/8.

[3] = test system: HEK T/tH-KRAS^G12V cells; assay: Drug response and viability assay, HEK T/tH-KRAS^G12V with or without MEK1-5DD; type: cell-based, human; details: 96 hours, GI50
Method: Cells were seeded at 1500-2500 cells per well in triplicates, in 96 well format. Next day, appropriate inhibitor was added in serial dilution from 1.00×102 μM or indicated single doses. Vehicle (DMSO) was added to match volume of inhibitor used for highest concentration. After 96-120 hours, 5× AlamarBlue® reagent (resazurin sodium salt, Sigma) was added to wells and incubated for 2-4 hours. Fluorescence at 585 nm (excitation 555 nm) was measured by SpectraMax i3 Microplate Reader. Raw values were normalized to vehicle, analyzed and graphed using GraphPad Prism v7/8 software.

[4] = test system: NF-κB reporter activity; assay: NF-κB luciferase reporter assay; type: cell-based, human; details: KRAS-mutant PDAC cells (PANC-1); serial dilutions from 20 μM; 18 hours
Method: (§1) Cells stably expressing plasmid encoding serum-response-element (SRE) or NFKB promoter driven Firefly luciferase and constitutive Renilla luciferase were seeded at equal density per well and treatment was initiated the next day for 16-24 duration. Alternatively, 293T reporter cells were transfected in duplicate or triplicate with 1 μg of appropriate plasmid DNA. Medium was replaced 16-18 hours later and at 48 hours post-transfection reporter activity was measured using Dual-Glo® Luciferase Assay System. Data was acquired using SpectraMax i3Microplate Reader and analysis was performed by calculating ratio of firefly:renilla. Values were normalized to control and graphed using GraphPad Prism v7/8 software.

[5] = test system: serum-response element (SRE); assay: Serum-response element (SRE) luciferase reporter assay; type: cell-based, human; details: HPAC cells
Method: as §1

[6] = test system: p-TPL2; assay: Immunoblot of activated ectopic TPL2 (anti-p-TPL2 antibody); type: cell-based, human; details: Pa01C and HPAC cells overexpressing TPL2
Method: (§2) Standard immunoblotting procedure was followed. Cells were washed twice with ice-cold 1×PBS and lysed with ice-cold triton-X lysis buffer (25 mM Tris, pH 7.4, 150 mM NaCl, 5 mM EDTA, 1% Triton-X) containing 1× protease (10 μg mL-1 leupeptin, 700 ng mL-1 pepstatin, 170 ng mL-1 aprotinin, 1 mM PMSF) and phosphatase (10 mM NaF, 1 mM Na3VO4, 1 mM Na4P2O^7, 5 mM Na b-glycerophosphate) inhibitors. Lysates were quantified by Bradford assay (Thermo Scientific), normalized for concentration, and reduced and denatured with 6×SDS sample buffer followed by boiling for 5 minutes. 20-40 μg of protein per sample was resolved by SDS-PAGE, blotted on PVDF membrane and probed with primary antibodies (Cell Signaling Technologies: p-ERK1/2 (#4370), p-MEK1/2 (#9154), ERK1/2 (#4695), MEK1/2 (#8727), p-p105 (#4806), NFS2KB1 p105/p50 (#3035), p-IRAK4 (#11927), IRAK4 (#4363), ubiquitin (#43124), anti-HA (#3724), p-p90RSK (#11989), RSK1/2/3 (#9355), p-TPL2 (#4491), PARP (#9532), p-B-RAF S445 (#2696), BRAF (#9433S). Santa Cruz Biotechnology: GAPDH (#sc-32233), p-p65 […] (#sc101752). Thermo Fisher Scientific: p-55 TPL2 (#PA5-36635). EMD Millipore: IRAK4 (#07-418). R&D systems: TPL2/MAP3K8 (#MAB4586). Novus Biologicals: anti-AU1 (#NB600-453). Abcam: p-p65 […] (#ab194726)). […]

[7] = test system: MAPK activity; assay: Immunoblots of MAPK activity in murine PDAC lines KP2 and KI; type: cell-based; details: 24 hours, serum-free
Method: as §2

[8] = test system: KRAS-mutant PDAC lines; assay: Drug response and viability assay (AlamarBlue), PDAC lines; type: cell-based, human; details: various KRAS-mutant PDAC lines; 5 and 7 days
Method: Cells were seeded at 1500-2500 cells per well in triplicates, in 96 well format. Next day, appropriate inhibitor was added in serial dilution from 1.00×102 μM or indicated single doses. Vehicle (DMSO) was added to match volume of inhibitor used for highest concentration. […] Fluorescence at 585 nm (excitation 555 nm) was measured by SpectraMax i3 Microplate Reader. Raw values were normalized to vehicle, analyzed and graphed using GraphPad Prism v7/8 software.

CC[C@@H]1[C@H](F)C(=O)N[C@@H]1COc1nccc2cc(C(N)=O)c(OC)cc12 [PF06650833, 1-(((2S,3S,4S)-3-ethyl-4-fluoro-5-oxopyrrolidin-2-yl)methoxy)-7-methoxyisoquinoline-6-carboxamide]
MAPK target proteins (RPPA) [1]: suppressed
IRAK4-induced increase in p-FAK, p-ERK, total FAK, and FoxM1 (RPPA) ([1]; 24 hours): reversed
AI growth ([2]; HPNE-KRAS^G12D cells): crippled the AI growth
AI growth enhanced by IRAK4 overexpression ([2]; HPNE-KRAS^G12D cells ectopically expressing IRAK4): reversed the effect of IRAK4 overexpression
loss of sensitivity to growth inhibition on expression of MEK1-5DD [3]: approximately 3 fold
NF-κB reporter activity [4]: dose-dependently suppressed
SRE-driven luciferase reporter activity [5]: dose-dependently reduced
activated state of ectopically expressed TPL2 (p-TPL2) [6]: dose-dependently deactivated
MAPK activity (immunoblot) [7]: dose-dependently suppressed
viability [8]: dose-dependently reduced
